# Laboratory results reported in ChEMBL document CHEMBL1828590 (J Med Chem, 2011).
# Legend:
# Histone deacetylase 11 = biological target: T1, Histone deacetylase 11 (Homo sapiens, UniProt Q96DB2)
# T1 sequence (Q96DB2 whole entry): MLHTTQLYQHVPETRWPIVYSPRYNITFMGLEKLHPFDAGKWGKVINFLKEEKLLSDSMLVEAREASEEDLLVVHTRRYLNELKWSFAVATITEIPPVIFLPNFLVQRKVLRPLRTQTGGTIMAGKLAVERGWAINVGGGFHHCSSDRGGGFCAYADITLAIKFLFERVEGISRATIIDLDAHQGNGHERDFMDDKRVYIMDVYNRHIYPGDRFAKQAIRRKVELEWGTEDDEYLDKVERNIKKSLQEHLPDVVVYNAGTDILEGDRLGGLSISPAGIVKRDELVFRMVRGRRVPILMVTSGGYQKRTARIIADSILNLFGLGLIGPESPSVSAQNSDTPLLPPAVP
# Description: Competitive inhibition of HDAC11 using KI-104 as substrate by fluorescence assay
# Histone deacetylase 4 = Histone deacetylase 4 (Homo sapiens, UniProt P56524)
# Description: Competitive inhibition of HDAC4 using KI-104 as substrate by fluorescence assay
# Histone deacetylase 1 [1] = biological target: T2, Histone deacetylase 1 (Homo sapiens, UniProt Q13547)
# Description: Competitive inhibition of HDAC1 using KI-104 as substrate by fluorescence assay
# [2] = Half life in human liver microsomes; assay type: ADME, Microsome
# Histone deacetylase 2 = Histone deacetylase 2 (Homo sapiens, UniProt Q92769)
# Description: Competitive inhibition of HDAC2 using KI-104 as substrate by fluorescence assay
# [3] = biological target: T3, Protein deacetylase HDAC6 (Homo sapiens, UniProt Q9UBN7)
# T3 sequence (Q9UBN7 whole entry): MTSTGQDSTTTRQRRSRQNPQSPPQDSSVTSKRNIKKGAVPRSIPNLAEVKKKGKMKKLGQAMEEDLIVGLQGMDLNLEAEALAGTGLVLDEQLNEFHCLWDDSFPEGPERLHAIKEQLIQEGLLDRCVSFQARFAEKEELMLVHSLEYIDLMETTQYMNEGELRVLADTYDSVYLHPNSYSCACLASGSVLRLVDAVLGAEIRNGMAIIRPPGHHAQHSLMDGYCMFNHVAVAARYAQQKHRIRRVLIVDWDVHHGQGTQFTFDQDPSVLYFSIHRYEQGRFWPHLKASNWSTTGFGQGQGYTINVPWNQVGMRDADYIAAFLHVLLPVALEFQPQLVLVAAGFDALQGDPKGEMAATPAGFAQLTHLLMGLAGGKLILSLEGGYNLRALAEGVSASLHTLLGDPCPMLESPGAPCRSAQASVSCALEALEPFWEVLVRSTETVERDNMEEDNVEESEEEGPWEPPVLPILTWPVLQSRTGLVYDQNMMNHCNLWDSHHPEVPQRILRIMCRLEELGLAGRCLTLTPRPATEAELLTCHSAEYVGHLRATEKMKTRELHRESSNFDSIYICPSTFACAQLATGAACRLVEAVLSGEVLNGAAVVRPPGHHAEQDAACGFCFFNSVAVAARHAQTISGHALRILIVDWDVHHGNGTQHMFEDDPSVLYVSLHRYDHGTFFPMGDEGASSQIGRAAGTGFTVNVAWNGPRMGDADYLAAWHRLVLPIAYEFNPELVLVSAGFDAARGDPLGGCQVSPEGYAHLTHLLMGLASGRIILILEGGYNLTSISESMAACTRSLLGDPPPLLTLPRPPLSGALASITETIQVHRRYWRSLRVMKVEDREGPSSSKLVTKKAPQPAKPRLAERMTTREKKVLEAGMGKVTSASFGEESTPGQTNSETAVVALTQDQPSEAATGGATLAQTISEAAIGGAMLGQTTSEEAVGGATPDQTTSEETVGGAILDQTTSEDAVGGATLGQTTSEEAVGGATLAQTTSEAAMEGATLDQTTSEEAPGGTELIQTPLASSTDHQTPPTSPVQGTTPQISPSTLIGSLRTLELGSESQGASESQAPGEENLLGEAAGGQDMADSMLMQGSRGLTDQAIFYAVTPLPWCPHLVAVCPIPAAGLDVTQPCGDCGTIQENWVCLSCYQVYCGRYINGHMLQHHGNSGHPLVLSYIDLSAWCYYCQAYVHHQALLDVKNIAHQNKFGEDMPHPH
# Description: Competitive inhibition of HDAC6 using KI-104 as substrate by fluorescence assay
# Liver = assay: Half life in mouse liver microsomes; assay type: ADME, Microsome; conditions: microsomes
# Histone deacetylase 9 = Histone deacetylase 9 (Homo sapiens, UniProt Q9UKV0)
# Description: Competitive inhibition of HDAC9 using KI-104 as substrate by fluorescence assay
# Histone deacetylase 1 [4] = biological target: T2, Histone deacetylase 1; remark: listed apart in the source
# Description: Inhibition of full length recombinant HDAC1 using Fluor de Lys as substrate by fluorescence assay
# COLO 205 = assay: Antiproliferative activity against human COLO205 cells after 96 hrs by celltiter 96 assay; assay type: functional, cell-based; conditions: COLO 205, 96 h
# [5] = biological target: T4, Polyamine deacetylase HDAC10 (Homo sapiens, UniProt Q969S8)
# T4 sequence (Q969S8 whole entry): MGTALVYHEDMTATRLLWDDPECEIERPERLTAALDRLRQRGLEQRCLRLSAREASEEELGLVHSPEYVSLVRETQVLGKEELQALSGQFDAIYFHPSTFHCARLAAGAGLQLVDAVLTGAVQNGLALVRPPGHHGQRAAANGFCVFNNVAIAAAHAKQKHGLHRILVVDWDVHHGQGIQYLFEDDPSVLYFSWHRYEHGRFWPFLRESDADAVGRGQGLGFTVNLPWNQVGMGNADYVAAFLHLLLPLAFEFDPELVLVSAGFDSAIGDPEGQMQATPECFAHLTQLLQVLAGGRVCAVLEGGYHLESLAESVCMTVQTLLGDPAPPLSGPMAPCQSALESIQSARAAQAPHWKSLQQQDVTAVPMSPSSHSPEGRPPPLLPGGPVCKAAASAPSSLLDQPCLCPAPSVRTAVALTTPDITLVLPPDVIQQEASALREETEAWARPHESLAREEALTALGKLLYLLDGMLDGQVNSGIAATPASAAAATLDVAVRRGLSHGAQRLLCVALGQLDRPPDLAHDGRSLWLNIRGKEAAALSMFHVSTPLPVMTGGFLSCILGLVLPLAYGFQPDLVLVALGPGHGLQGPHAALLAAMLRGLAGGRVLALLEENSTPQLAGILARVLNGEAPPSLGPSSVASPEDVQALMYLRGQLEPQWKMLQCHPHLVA
# Description: Competitive inhibition of HDAC10 using KI-104 as substrate by fluorescence assay
# Histone deacetylase 3 = Histone deacetylase 3 (Homo sapiens, UniProt O15379)
# Description: Competitive inhibition of HDAC3 using KI-104 as substrate by fluorescence assay
# Histone deacetylase 5 = Histone deacetylase 5 (Homo sapiens, UniProt Q9UQL6)
# Description: Competitive inhibition of HDAC5 using KI-104 as substrate by fluorescence assay
# Histone deacetylase 7 = Histone deacetylase 7 (Homo sapiens, UniProt Q8WUI4)
# Description: Competitive inhibition of HDAC7 using KI-104 as substrate by fluorescence assay
# A2780 = assay: Antiproliferative activity against human A2780 cells after 96 hrs by celltiter 96 assay; assay type: functional, cell-based; conditions: A2780, 96 h
# HCT-116 = assay: Antiproliferative activity against human HCT116 cells after 96 hrs by celltiter 96 assay; assay type: functional, cell-based; conditions: HCT-116, 96 h
# Histone deacetylase 8 = biological target: T5, Histone deacetylase 8 (Homo sapiens, UniProt Q9BY41)
# T5 sequence (Q9BY41 whole entry): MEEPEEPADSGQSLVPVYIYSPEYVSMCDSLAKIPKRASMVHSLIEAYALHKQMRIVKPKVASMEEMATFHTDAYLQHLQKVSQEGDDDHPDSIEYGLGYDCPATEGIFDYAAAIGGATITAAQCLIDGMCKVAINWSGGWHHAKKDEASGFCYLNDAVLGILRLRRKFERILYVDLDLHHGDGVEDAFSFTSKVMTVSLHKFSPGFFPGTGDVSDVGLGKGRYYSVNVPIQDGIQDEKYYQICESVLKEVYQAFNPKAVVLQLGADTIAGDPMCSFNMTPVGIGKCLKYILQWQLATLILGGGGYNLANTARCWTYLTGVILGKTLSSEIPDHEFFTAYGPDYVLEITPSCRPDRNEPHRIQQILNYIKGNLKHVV
# Description: Competitive inhibition of HDAC8 using KI-104 as substrate by fluorescence assay
# PC-3 = assay: Antiproliferative activity against human PC3 cells after 96 hrs by celltiter 96 assay; assay type: functional, cell-based; conditions: PC-3, 96 h
# T2 sequence (Q13547 whole entry): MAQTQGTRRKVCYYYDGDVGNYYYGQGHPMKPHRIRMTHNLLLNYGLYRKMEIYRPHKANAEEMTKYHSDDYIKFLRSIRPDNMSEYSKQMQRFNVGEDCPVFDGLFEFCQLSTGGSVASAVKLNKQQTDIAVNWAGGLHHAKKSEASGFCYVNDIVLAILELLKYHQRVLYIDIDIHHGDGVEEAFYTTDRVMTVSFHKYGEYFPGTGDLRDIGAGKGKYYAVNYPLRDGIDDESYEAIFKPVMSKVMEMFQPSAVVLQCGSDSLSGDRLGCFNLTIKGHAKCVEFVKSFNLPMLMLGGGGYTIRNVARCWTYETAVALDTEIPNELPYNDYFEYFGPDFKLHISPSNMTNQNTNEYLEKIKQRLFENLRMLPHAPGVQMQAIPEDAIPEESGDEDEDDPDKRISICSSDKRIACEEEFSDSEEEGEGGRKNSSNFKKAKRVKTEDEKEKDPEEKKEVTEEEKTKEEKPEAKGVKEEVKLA
# Histone deacetylase 3, sequence (O15379 whole entry): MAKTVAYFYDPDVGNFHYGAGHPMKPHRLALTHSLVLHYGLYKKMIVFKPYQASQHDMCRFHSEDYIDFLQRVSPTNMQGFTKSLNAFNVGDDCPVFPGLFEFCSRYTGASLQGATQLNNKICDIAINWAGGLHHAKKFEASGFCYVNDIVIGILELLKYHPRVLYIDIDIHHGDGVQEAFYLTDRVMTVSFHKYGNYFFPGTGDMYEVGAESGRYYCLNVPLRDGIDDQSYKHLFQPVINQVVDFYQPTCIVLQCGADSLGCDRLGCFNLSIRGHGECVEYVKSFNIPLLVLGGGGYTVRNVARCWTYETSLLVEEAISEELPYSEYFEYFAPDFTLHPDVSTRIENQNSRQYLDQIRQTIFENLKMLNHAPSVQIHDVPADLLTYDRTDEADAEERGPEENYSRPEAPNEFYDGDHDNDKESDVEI
# Histone deacetylase 9, sequence (Q9UKV0 whole entry): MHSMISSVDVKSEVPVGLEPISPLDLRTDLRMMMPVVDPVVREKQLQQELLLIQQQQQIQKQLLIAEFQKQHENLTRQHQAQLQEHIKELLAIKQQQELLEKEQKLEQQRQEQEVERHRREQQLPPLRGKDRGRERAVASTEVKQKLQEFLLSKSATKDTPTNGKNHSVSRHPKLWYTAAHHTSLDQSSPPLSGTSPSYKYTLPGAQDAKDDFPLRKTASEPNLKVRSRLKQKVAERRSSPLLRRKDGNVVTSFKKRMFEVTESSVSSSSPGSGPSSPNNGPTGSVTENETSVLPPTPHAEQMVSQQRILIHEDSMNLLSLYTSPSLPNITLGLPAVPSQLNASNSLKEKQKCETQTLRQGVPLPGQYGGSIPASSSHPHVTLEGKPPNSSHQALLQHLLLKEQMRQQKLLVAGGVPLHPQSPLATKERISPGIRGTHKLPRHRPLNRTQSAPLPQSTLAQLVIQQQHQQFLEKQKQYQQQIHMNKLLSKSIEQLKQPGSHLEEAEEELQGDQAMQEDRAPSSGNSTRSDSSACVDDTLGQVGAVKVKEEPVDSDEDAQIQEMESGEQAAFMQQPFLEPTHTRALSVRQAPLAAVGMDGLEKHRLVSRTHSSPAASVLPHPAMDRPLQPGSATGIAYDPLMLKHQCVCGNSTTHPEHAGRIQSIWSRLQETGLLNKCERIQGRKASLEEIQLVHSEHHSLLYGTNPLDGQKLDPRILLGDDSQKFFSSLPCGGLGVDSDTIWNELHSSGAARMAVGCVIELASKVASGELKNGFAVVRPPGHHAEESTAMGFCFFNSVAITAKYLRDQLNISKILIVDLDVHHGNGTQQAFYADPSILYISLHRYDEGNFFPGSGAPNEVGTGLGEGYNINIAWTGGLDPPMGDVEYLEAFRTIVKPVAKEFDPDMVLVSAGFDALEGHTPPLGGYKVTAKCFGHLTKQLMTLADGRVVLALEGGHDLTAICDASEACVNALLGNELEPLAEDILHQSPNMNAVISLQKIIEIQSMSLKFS
# Histone deacetylase 2, sequence (Q92769 whole entry): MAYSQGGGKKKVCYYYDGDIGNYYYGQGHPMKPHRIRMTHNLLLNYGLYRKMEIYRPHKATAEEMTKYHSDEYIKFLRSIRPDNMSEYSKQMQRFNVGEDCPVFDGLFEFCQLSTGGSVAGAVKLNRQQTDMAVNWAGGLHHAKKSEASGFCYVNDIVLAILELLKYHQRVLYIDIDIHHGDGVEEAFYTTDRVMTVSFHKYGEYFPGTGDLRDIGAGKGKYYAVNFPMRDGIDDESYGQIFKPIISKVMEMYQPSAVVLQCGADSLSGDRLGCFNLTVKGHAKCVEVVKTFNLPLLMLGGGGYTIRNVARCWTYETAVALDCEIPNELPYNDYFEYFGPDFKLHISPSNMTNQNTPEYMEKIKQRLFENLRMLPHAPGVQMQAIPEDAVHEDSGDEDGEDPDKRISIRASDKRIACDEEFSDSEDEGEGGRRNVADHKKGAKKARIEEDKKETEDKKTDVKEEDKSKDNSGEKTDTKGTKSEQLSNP
# Histone deacetylase 4, sequence (P56524 whole entry): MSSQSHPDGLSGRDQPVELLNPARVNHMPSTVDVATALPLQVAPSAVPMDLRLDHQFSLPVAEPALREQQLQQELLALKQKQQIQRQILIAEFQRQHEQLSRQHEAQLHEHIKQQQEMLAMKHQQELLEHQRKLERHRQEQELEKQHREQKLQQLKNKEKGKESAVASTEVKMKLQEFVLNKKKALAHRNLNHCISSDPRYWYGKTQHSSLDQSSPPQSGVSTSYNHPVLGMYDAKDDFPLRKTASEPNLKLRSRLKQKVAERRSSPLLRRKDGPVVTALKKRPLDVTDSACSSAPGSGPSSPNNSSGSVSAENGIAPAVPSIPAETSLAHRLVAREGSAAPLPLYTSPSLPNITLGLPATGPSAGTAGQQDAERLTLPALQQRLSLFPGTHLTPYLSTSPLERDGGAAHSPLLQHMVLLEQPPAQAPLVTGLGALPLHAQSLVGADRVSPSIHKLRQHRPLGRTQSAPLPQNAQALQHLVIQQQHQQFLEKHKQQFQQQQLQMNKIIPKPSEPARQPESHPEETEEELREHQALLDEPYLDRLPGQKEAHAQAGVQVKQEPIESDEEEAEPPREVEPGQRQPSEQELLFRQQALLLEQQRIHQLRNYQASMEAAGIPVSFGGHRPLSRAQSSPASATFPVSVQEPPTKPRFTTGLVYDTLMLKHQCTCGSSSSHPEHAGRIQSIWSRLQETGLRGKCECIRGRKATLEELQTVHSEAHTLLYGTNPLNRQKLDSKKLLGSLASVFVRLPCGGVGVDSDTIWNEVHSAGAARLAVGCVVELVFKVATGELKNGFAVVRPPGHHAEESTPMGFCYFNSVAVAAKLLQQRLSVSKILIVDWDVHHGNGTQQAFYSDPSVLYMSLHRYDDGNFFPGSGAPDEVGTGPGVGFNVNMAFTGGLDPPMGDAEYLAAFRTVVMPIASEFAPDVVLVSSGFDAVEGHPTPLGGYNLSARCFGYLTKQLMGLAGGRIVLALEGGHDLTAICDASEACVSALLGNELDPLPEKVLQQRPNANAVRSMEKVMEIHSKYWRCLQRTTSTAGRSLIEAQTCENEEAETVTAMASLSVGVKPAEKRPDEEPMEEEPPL
# Histone deacetylase 5, sequence (Q9UQL6 whole entry): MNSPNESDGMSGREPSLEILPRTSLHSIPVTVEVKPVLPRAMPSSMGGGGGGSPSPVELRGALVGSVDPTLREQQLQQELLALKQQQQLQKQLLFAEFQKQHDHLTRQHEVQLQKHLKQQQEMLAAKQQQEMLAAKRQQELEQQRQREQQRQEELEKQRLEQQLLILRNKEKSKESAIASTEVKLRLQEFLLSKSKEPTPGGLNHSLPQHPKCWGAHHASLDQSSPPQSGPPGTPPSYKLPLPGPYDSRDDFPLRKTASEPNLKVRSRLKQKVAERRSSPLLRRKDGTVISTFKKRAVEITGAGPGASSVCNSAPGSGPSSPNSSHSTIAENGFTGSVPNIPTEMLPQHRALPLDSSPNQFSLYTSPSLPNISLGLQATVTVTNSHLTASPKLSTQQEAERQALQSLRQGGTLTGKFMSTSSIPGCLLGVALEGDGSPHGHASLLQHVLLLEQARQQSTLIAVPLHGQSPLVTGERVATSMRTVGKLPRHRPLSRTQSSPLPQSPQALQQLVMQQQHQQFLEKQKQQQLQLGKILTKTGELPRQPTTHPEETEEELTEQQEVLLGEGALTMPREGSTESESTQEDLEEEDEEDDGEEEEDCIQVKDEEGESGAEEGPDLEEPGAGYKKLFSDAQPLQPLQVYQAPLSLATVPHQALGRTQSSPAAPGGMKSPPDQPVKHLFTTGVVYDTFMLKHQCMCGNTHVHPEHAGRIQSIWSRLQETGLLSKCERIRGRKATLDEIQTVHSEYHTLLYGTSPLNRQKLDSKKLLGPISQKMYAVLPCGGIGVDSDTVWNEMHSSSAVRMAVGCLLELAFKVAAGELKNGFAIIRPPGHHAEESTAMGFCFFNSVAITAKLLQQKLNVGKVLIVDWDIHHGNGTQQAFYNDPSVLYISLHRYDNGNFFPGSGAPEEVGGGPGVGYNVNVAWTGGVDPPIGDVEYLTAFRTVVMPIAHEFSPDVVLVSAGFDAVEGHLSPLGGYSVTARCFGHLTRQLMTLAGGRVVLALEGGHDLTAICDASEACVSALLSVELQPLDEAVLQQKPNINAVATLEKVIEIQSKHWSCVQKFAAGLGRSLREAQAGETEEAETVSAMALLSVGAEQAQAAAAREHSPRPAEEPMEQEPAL
Ki (Histone deacetylase 11),Ki (Histone deacetylase 4),Ki (Histone deacetylase 1 [1]),half-life [2],Ki (Histone deacetylase 2),Ki [3],t1/2 (Liver),Ki (Histone deacetylase 9),IC50 (Histone deacetylase 1 [4]),IC50 (COLO 205),Ki [5],Ki (Histone deacetylase 3),Ki (Histone deacetylase 5),Ki (Histone deacetylase 7),IC50 (A2780),IC50 (HCT-116),Ki (Histone deacetylase 8),IC50 (PC-3),SMILES
14 nM,8.7 nM,12 nM,1.5 h,39 nM,27 nM,0.583 h,24 nM,23 nM,87 nM,23 nM,11 nM,18 nM,–,–,–,–,–,O=C(/C=C/c1ccc2c(c1)nc(CCc1ccccc1)n2CCN1CCCCC1)NO
14 nM,6.6 nM,20 nM,–,18 nM,348 nM,–,16 nM,36 nM,170 nM,29 nM,15 nM,6.6 nM,41 nM,200 nM,210 nM,57 nM,170 nM,CCCCCCc1nc2cc(/C=C/C(=O)NO)ccc2n1CCNC(C)C
